Experimental data as given in US20100261711A1, “SELECTIVE ANTICONVULSANT AGENTS AND THEIR USES” (WiSys Technology Foundation, priority 2009, published 2010).
Where two headings read alike, the source gives them in different places. Marks after values point to notes of the source that are not given here.

Columns and labels:
[1] = test system: 6 Hz psychomotor seizure; assay: Minimal clonic seizure (6 Hz) test; type: in vivo; conditions: Mus musculus, ip, Mice IP
Excerpt: Like the maximal electroshock (MES) test, the minimal clonic seizure (6 Hz) test is used to assess a compound's efficacy against electrically-induced seizures but uses a lower frequency (6 Hz) and longer duration of stimulation (3 s). Test compounds are pre-administered to mice via ip injection. […] Untreated mice will display seizures characterized by a minimal clonic phase followed by stereotyped, automatistic behaviors described originally as being similar to the aura of human subjects with partial seizures. Animals not displaying this behavior are considered protected (Table 10).

[2] = test system: Metrazol-induced clonic seizures; conditions: Mice IP; from Antiepileptic Drugs, 5th ed., Levy et al., 2002; cited from earlier work
[3] = test system: MES-induced seizures; conditions: Rat PO; from Antiepileptic Drugs, 5th ed., Levy et al., 2002; cited from earlier work
[4] = Toxicity (TOX), rotorod procedure, mice; type: in vivo; conditions: mouse, in vivo; IP route in mice (footnote of Table 10); read-out: TD50
Protocol: (§1) The benzodiazepine derivative compounds selective for GABAa receptor subunits were tested for the ability to suppress seizures in several standard rat and mouse models of epilepsy. […] The standard models incorporated into anticonvulsant screening include the maximal electroshock test (MES), the subcutaneous Metrazol test (scMet), and evaluations of toxicity (TOX). The data for each condition is presented as a ratio of either the number of animals protected or toxic (loss of locomotor activity) over the number of animals tested at a given time point and dose.
(§2) To assess a compound's undesirable side effects (toxicity), animals are monitored for overt signs of impaired neurological or muscular function. […] When a mouse is placed on a rod that rotates at a speed of 6 rpm, the animal can maintain its equilibrium for long periods of time. The animal is considered toxic if it falls off this rotating rod three times during a 1-min period. In rats, minimal motor deficit is indicated by ataxia, which is manifested by an abnormal, uncoordinated gait. Rats used for evaluating toxicity are examined before the test drug is administered, since individual animals may have peculiarities in gait, equilibrium, placing response, etc., which might be attributed erroneously to the test substance.

[5] = test system: Metrazol-induced clonic seizures; conditions: Rat PO; from Antiepileptic Drugs, 5th ed., Levy et al., 2002; cited from earlier work
[6] = test system: MES-induced seizures; conditions: Mice IP; from Antiepileptic Drugs, 5th ed., Levy et al., 2002; cited from earlier work
[7] = test system: minimal motor deficit (ataxia, abnormal gait); conditions: Rat PO; from Antiepileptic Drugs, 5th ed., Levy et al., 2002; cited from earlier work
[8] = target: GABAA/α5 receptors (Homo sapiens, UniProt P18507+P31644); conditions: Huang et al., J. Med. Chem. 2000, 43, 71-95; cited from earlier work
[9] = target: T1, GABAA/α3 (α3β3γ2 GABAA receptors) (Homo sapiens, UniProt P18507+P34903); assay: Competitive binding assay, [3H]flunitrazepam; conditions: Binding Affinity at GABAA/α3, αxβ3γ2, [3H]flunitrazepam competition
T1 construct: expressed in transfected cells
Protocol: (§3) The GABAA subunit selectivity of several compounds prepared as described above were determined using competitive binding assays. […] Membranes were harvested with a Brandel cell harvester followed by three ice-cold washes onto polyethyleneimine-pretreated (0.3%) Whatman GF/C filters. Filters were dried overnight and then soaked in Ecoscint, a liquid scintillation cocktail (National Diagnostics; Atlanta, Ga.). Bound radioactivity was quantified by liquid scintillation counting. Membrane protein concentrations were determined using an assay kit from Bio-Rad (Hercules, Calif.) with bovine serum albumin as the standard.

[10] = target: T2, GABAA/α6 (α6β3γ2 GABAA receptors) (Homo sapiens, UniProt P18507+Q16445); assay: Competitive binding assay, [3H]flunitrazepam
T2 construct: expressed in transfected cells
Protocol: as §3

[11] = target: T3, GABAA/α2 (α2β3γ2 GABAA receptors) (Homo sapiens, UniProt P18507+P47869); assay: Competitive binding assay, [3H]flunitrazepam; conditions: αxβ3γ2, [3H]flunitrazepam competition; read-out: Binding Affinity at GABAA/α2
T3 construct: expressed in transfected cells
Protocol: as §3

[12] = target: T4, GABAA/α1 (α1β3γ2 GABAA receptors) (Homo sapiens, UniProt P14867+P18507); assay: Competitive binding assay, [3H]flunitrazepam; conditions: αxβ3γ2, [3H]flunitrazepam competition; read-out: Binding Affinity at GABAA/α1
T4 construct: expressed in transfected cells
Protocol: as §3

[13] = target: T5, GABAA/α4 (α4β3γ2 GABAA receptors) (Homo sapiens, UniProt P18507+P48169); assay: Competitive binding assay, [3H]flunitrazepam
T5 construct: expressed in transfected cells
Protocol: as §3

[14] = target: T6, GABAA/α5 (α5β3γ2 GABAA receptors) (Homo sapiens, UniProt P18507+P31644); assay: Competitive binding assay, [3H]flunitrazepam; conditions: Binding Affinity at GABAA/α5, αxβ3γ2, [3H]flunitrazepam competition
T6 construct: expressed in transfected cells
Protocol: as §3

[15] = target: GABAA/α1 receptors (Homo sapiens, UniProt P14867+P18507); conditions: Huang et al., J. Med. Chem. 2000, 43, 71-95; cited from earlier work
[16] = target: GABAA/α2 (Homo sapiens, UniProt P18507+P47869); conditions: Huang et al., J. Med. Chem. 2000, 43, 71-95; cited from earlier work
[17] = target: GABAA/α3 (Homo sapiens, UniProt P18507+P34903); conditions: Huang et al., J. Med. Chem. 2000, 43, 71-95; cited from earlier work
[18] = test system: Metrazol-induced clonic seizures; assay: Subcutaneous Metrazol test (scMet), rats; type: in vivo
Protocol: as §1
(§4) Subcutaneous injection of the convulsant Metrazol produces clonic seizures in laboratory animals. […] Animals are pretreated with various doses of the test compound (in a similar manner to the MES test, although a dose of 50 mg/kg (po) is the standard for Test 2 scMet). At the previously determined TPE of the test compound, the dose of Metrazol which will induce convulsions in 97% of animals (CD97: 85 mg/kg mice) is injected into a loose fold of skin in the midline of the neck. […] An episode of clonic spasms, approximately 3-5 seconds, of the fore and/or hindlimbs, jaws, or vibrissae is taken as the endpoint.

[19] = test system: MES-induced seizures; assay: Maximal electroshock test (MES), rats; type: in vivo; conditions: Rat PO; for MES, animals protected/tested: 30 mg/kg
Protocol: as §1
(§5) The MES is a model for generalized tonic-clonic seizures and provides an indication of a compound's ability to prevent seizure spread when all neuronal circuits in the brain are maximally active. These seizures are highly reproducible and are electrophysiologically consistent with human seizures. For all tests based on MES convulsions, 60 Hz of alternating current (50 mA in mice, 150 in rats) is delivered for by corneal electrodes which have been primed with an electrolyte solution containing an anesthetic agent (0.5% tetracaine HCL). For Test 1, mice are tested at various intervals following doses of 30, 100 and 300 mg/kg of test compound given by ip injection of a volume of 0.01 mL/g. In Test 2, rats are tested after a dose of 30 mg/kg (po) in a volume of 0.04 mL/g. Test 8 uses varying doses administered via i.p. injection, again in a volume of 0.04 ml/g. […] In Antiepileptic Drugs, Levy, R. H. M., Meldrum, B. S., Eds.; Raven Press: New York, pp 99-110, 1995b.).

[20] = test system: kindled motor seizure; assay: Hippocampus kindling screen; type: in vivo; conditions: Rats IP, 3 mg/kg after 4 h
Excerpt: The hippocampus kindling screen is a useful adjunct to the traditional MES and scMet tests for identification of a substance potential utility for treating complex partial seizures. […] No toxic effects were observed as indicated by the lack of motor impairment on the rats tested.

[21] = test system: minimal muscular or neurological impairment; assay: Toxicity (TOX), rotorod procedure, mice; type: in vivo
Protocol: as §1, §2

[22] = test system: minimal motor deficit (ataxia, abnormal gait); assay: Toxicity (TOX), minimal motor deficit, rats; type: in vivo; conditions: Rat PO; for Tox, animals toxic/tested: 50 mg/kg
Protocol: as §1, §2

[23] = Toxicity (TOX), minimal motor deficit, rats; type: in vivo; conditions: in vivo; Rat IP
Protocol: as §1, §2

[24] = test system: Metrazol-induced clonic seizures; assay: Subcutaneous Metrazol test (scMet), mice; type: in vivo
Protocol: as §1, §4

[25] = test system: MES-induced seizures; assay: Maximal electroshock test (MES), mice; type: in vivo
Protocol: as §1, §5

[26] = 32 mA, read-out: ED50 32 mA (6 Hz test)
[27] = Mice, 50 mg/kg PO (Mice IP), 0.5 hr
[28] = Mice, 50 mg/kg PO (Mice IP), 4.0 hr

O=C1NC(=O)C(c2ccccc2)(c2ccccc2)N1 [Phenytoin]
ED50 [1, 26]: > 40 mg/kg | ED50 scMet [2]: >50 mg/kg | ED50 MES [3]: 28.1 mg/kg | TD50 [4]: 51 mg/kg | ED50 scMet [5]: >500 mg/kg | ED50 MES [6]: 5.64 mg/kg | TD50 TOX [7]: >1000 mg/kg

C#Cc1ccc2c(c1)C(c1ccccc1)=NCC(=O)N2C [QH-II-066, 1-Methyl-7-acetyleno-5-phenyl-1,3-dihydro-benzo[e]-1,4-diazepin-2-one]
Ki [8]: < 0.01 µM | Ki [9]: 0.0474 µM | Ki [10]: > 1 µM | Ki [11]: 0.0421 µM | Ki [12]: 0.0763 µM | Ki [13]: > 1 µM | Ki [14]: 0.0068 µM | Ki [15]: > 0.07 µM | Ki [16]: < 0.05 µM | Ki [17]: < 0.05 µM

C#Cc1ccc2c(c1)C(c1ccccc1Cl)=NCc1nnc(C)n1-2 [XLi-JY-DMH (23), 8-Acetyleno-5-(2′-chlorophenyl)-1-methyl-4H-s-triazolo-[4,3-a]-1,4-benzodiazepine]
ED50 ([18]; Rat IP): 4.2 mg/kg | ED50 ([18]; Rat PO): 1.58 mg/kg | scMet, animals protected/tested ([18]; Rat PO, 15 mg/kg, 0.5 h): 3/4^c | scMet, animals protected/tested ([18]; Rat PO, 15 mg/kg, 1.0 h): 2/4^c | scMet, animals protected/tested ([18]; Rat PO, 15 mg/kg, 2.0 h): 4/4^c | scMet, animals protected/tested ([18]; Rat PO, 15 mg/kg, 4.0 h): 2/4^c | scMet, animals protected/tested ([18]; Rat PO, 15 mg/kg, […]): 3/4^c | scMet, animals protected/tested ([18]; Rat PO, 50 mg/kg, 0.5 h): 4/4 | scMet, animals protected/tested ([18]; Rat PO, 50 mg/kg, 1.0 h): 4/4 | scMet, animals protected/tested ([18]; Rat PO, 50 mg/kg, 2.0 h): 4/4 | scMet, animals protected/tested ([18]; Rat PO, 50 mg/kg, 4.0 h): 3/4 | scMet, animals protected/tested ([18]; Rat PO, 50 mg/kg, […]): 4/4 | ED50 [1, 26]: 0.17 mg/kg | ED50 ([1]; 44 mA, read-out: ED50 44 mA (6 Hz test)): 0.4 mg/kg | ED50 [19]: > 150 mg/kg | MES, animals protected/tested ([19]; 0.5 h): 0/4 | MES, animals protected/tested ([19]; 1.0 h): 0/4 | MES, animals protected/tested ([19]; 2.0 h): 0/4 | MES, animals protected/tested ([19]; 4.0 h): 0/4 | MES, animals protected/tested ([19]; […]): 0/4 | Tox, animals toxic/tested [20]: 0/2^c | Afterdischarge Duration, Drug (Low-High) ([20]; pre-drug 29-41): 29- s | TOX (Rotorod Test), animals toxic/tested ([21]; Mice IP, 100 mg/kg, 0.5 hr): 6/8 | TOX (Rotorod Test), animals toxic/tested ([21]; Mice IP, 100 mg/kg, 4.0 hr): 2/4 | TD50 TOX ([21]; Mice IP, rotorod): 2.875 mg/kg | TOX (Rotorod Test), animals toxic/tested [21, 27]: 0/4 | TOX (Rotorod Test), animals toxic/tested [21, 28]: 0/4 | Tox, animals toxic/tested ([22]; 0.5 h): 0/4 | Tox, animals toxic/tested ([22]; 1.0 h): 0/4 | Tox, animals toxic/tested ([22]; 2.0 h): 0/4 | Tox, animals toxic/tested ([22]; 4.0 h): 0/4 | Tox, animals toxic/tested ([22]; […]): 0/4 | TD50 TOX ([22]; abnormal gait): 166.25 mg/kg | TD50 [23]: 2.08 mg/kg | mice protected against scMet induced seizures ([24]; Mice IP, 100 mg/kg, 0.5 hr): 100% | scMet, animals protected/tested ([24]; Mice IP, 100 mg/kg, 0.5 hr): 1/1 | scMet, animals protected/tested ([24]; Mice IP, 100 mg/kg, 4.0 hr): 1/1 | scMet, animals protected/tested [24, 27]: 3/4 | scMet, animals protected/tested [24, 28]: 2/4 | ED50 ([24]; Mus musculus, Mice IP): 1.03 mg/kg | MES, animals protected/tested ([25]; Mice IP, 100 mg/kg, 0.5 hr): 3/3 | MES, animals protected/tested ([25]; Mice IP, 100 mg/kg, 4.0 hr): 3/3 | MES, animals protected/tested [25, 27]: 0/4 | MES, animals protected/tested [25, 28]: 0/4 | ED50 ([25]; Mus musculus, Mice IP): > 6 mg/kg
